≈ marks a conversion by molar mass, not a printed value. Read-outs that look alike come from different tables or passages of the source.
How the values were obtained:
[1] = test system: Staphylococcus aureus (MSSA); test: Broth microdilution MIC, aerobic bacteria (Example 1); type: cell-based; conditions: Staphylococcus aureus, ATCC 29213 / MSSA, isolate MMX 100 (ATCC 29213), read-out: MIC
[2] = test system: Staphylococcus aureus (MRSA); test: microbe, parasite or virus in culture; type: cell-based; conditions: Staphylococcus aureus, MRSA
[3] = test system: Streptococcus pneumoniae; test: Broth microdilution MIC, aerobic bacteria (Example 1); type: cell-based; conditions: Streptococcus pneumoniae
[4] = test system: Streptococcus pyogenes; test: as above; type: cell-based; conditions: Streptococcus pyogenes, isolate MMX 404, read-out: MIC
[5] = test system: Pseudomonas aeruginosa; test: as above; type: cell-based
[6] = test system: Clostridium difficile; test: Broth microdilution MIC, anaerobic bacteria (Example 1); type: cell-based; conditions: Clostridioides difficile
[7] = test system: Lactobacillus crispatus; test: as above; type: cell-based; conditions: Lactobacillus crispatus
[8] = test system: Lactobacillus jensenii; test: as above; type: cell-based; conditions: Lactobacillus jensenii
[9] = test system: Candida parapsilosis; test: Broth microdilution MIC, yeast and fungi (Example 1); type: cell-based; conditions: Lodderomyces parapsilosis, ATCC22019, Example 1, isolate MMX 2323 (ATCC 22019)
[10] = Analysis of intestinal contents, plasma and brains after oral CBD or CBD-glycosides (Example 3); type: in vivo; conditions: mouse, oral gavage; 2 hours; data not shown
Experimental: In order to investigate the metabolism and decoupling of CBD-glycosides in the large intestine, an aqueous solution of a mixture of CBD-glycosides was administered to a mouse by oral gavage. As a control, a solution of CBD in cremophor, ethanol, and saline was administered to a second mouse. The animals were each sacrificed at 2 hours. Following termination and tissue harvest, the intestinal contents were then extracted and analyzed by C18 reverse phase HPLC. The mice employed in this example were eight week old male Swiss mice fasted for 12 hours prior to administration of the solutions.
The resulting extracts were analyzed by LCMS performed using a Shimadzu LC-MS 2010 EV. Electrospray ionization (ESI) was performed in negative mode. The column was a Silia Chrom XDB C18 5 um, 150 A, 4.6×50 mm. The method was 12 min 5 to 95 H2O:ACN. Acetic acid and formic acid were used as sample additives during analysis, and the injection volume was 20 μl.

[11] = test system: Staphylococcus aureus (MSSA); test: Broth microdilution MIC, aerobic bacteria (Example 4); type: cell-based; conditions: ATCC 29213 / MSSA
[12] = test system: Staphylococcus aureus (MRSA); test: microbe, parasite or virus in culture; type: cell-based
[13] = test system: Enterococcus faecalis (VRE); test: microbe, parasite or virus in culture; type: cell-based
[14] = test system: Streptococcus pneumoniae; test: Broth microdilution MIC, aerobic bacteria (Example 4); type: cell-based; conditions: ATCC49619
[15] = test system: Pseudomonas aeruginosa; test: as above; type: cell-based
[16] = test system: Acinetobacter baumannii; test: as above; type: cell-based
[17] = test system: Clostridium difficile; test: Broth microdilution MIC, anaerobic bacteria (Example 4); type: cell-based; conditions: Clostridioides difficile
[18] = test system: Lactobacillus jensenii; test: as above; type: cell-based; conditions: isolate MMX 4149
[19] = test system: Bifidobacterium bifidum; test: as above; type: cell-based; conditions: isolate MMX 3965
[20] = test system: Bifidobacterium longum; test: as above; type: cell-based; conditions: isolate MMX 3968
[21] = test system: Bacteroides fragilis; test: as above; type: cell-based; conditions: ATCC25285, isolate MMX 123 (ATCC 25285)
[22] = test system: Candida parapsilosis; test: Broth microdilution MIC, fungi (Example 4); type: cell-based; conditions: Lodderomyces parapsilosis
[23] = Compound precipitation in uninoculated solubility controls (Example 4); type: physicochemical
Experimental: Un-inoculated solubility control plates for each test media and drug were incubated in parallel with test plates and observed for evidence of drug precipitation. MICs were read where visible growth of the organism was inhibited.

[24] = test system: S. pyogenes MMX 404; test: MIC/MBC testing (Example 5); type: cell-based
[25] = test system: E. coli ATCC 25922; test: MIC/MBC testing (Example 5); type: cell-based; conditions: Escherichia coli, ATCC25922
[26] = test system: B. bifidum MMX 3965; test: MIC/MBC testing (Example 5); type: cell-based
[27] = test system: gram-positive aerobes; test: Broth microdilution MIC, text summary (Example 1); type: cell-based
[28] = test system: gram-negative aerobes; test: Broth microdilution MIC, text summary (Example 1); type: cell-based
[29] = test system: gram-negative aerobes; test: Broth microdilution MIC, summary (Example 4); type: cell-based; conditions: tested alone
[30] = test system: evaluated yeast and fungal isolates; test: Broth microdilution MIC, summary (Example 4); type: cell-based
[31] = test system: strains tested; test: MIC/MBC testing, summary (Example 5); type: cell-based
[32] = read-out: inhibits the growth (IC50)
[33] = Example 1 summary of findings, read-out: inhibits the growth (IC50 values)
[34] = ratios of 1-4 are indicative of bactericidal activity
[35] = Bifidobacterium bifidum, MMX3965

In the case of `C=C(C)[C@@H]1CCC(C)=C[C@H]1c1c(O)cc(CCCCC)cc1O` [CBD, cannabidiol], the MIC [1] is reported as 2 µg/mL (≈ 6.36 µM), the MIC [2] is reported as 2 µg/mL (≈ 6.36 µM) and the IC50 [2, 32] is reported as 2 µg/mL (≈ 6.36 µM). It also gave an MIC ([3]; ATCC49619, Example 1, isolate MMX 1195 (ATCC 49619), read-out: MIC) of 4 µg/mL (≈ 12.7 µM), an IC50 ([3]; Example 1 summary of findings, read-out: inhibits the growth (IC50)) of 4 µg/mL (≈ 12.7 µM) and an MIC [4] of 16 µg/mL (≈ 50.9 µM). The “effect on the gram-negative pathogen” value ([5]; Example 1 summary of findings, Pseudomonas) was “did not have any effect”, the MIC ([5]; Pseudomonas aeruginosa, Example 1, isolate MMX 1380, read-out: MIC) was greater than 256 µg/mL and the MIC ([6]; ATCC00057, Example 1, isolate MMX 4381 (ATCC 00057)) was 32 µg/mL (≈ 102 µM). For the same compound, the MIC ([6]; Example 1, isolate MMX 8330, read-out: MIC) was 32 µg/mL (≈ 102 µM), the MIC ([6]; Example 1, isolate MMX 8333, read-out: MIC) was 32 µg/mL (≈ 102 µM) and the IC50 [6, 32] was 32 µg/mL (≈ 102 µM). It also gave an MIC ([7]; Example 1, isolate MMX 4147, read-out: MIC) of 2 µg/mL (≈ 6.36 µM), an IC50 [7, 33] of 2 µg/mL (≈ 6.36 µM) and an MIC ([8]; Example 1, isolate MMX 4149, read-out: MIC) of 64 µg/mL (≈ 204 µM). For the same compound, the IC50 [8, 33] was 64 µg/mL (≈ 204 µM), the MIC ([9]; 24 hr, read-out: MIC at 24 hr) was greater than 256 µg/mL and the MIC ([9]; 48 hr, read-out: MIC at 48 hr) was greater than 256 µg/mL. The “presence of CBD in plasma and brains (HPLC)” value [10] was “CBD was only present in the control animal that received CBD aglycone”, the MIC [11] was 2 µg/mL (≈ 6.36 µM) and the MIC [12] was 2 µg/mL (≈ 6.36 µM). It also gave an MIC [13] of 2 µg/mL (≈ 6.36 µM), an MIC [14] of 4 µg/mL (≈ 12.7 µM) and an MIC [15] greater than 128 µg/mL. For the same compound, the MIC [16] was greater than 128 µg/mL, the MIC ([17]; ATCC700057, Example 4, isolate MMX 4381 (ATCC 700057)) was 64 µg/mL (≈ 204 µM) and the MIC ([17]; Example 4, isolate MMX 8330) was 64 µg/mL (≈ 204 µM). For the same compound, the MIC ([17]; Example 4, isolate MMX 8333) was 64 µg/mL (≈ 204 µM), the MIC [18] was greater than 128 µg/mL and the MIC [19] was 8 µg/mL (≈ 25.4 µM). For the same compound, the MIC [20] was 64 µg/mL (≈ 204 µM), the MIC [21] was greater than 128 µg/mL and the MIC ([22]; ATCC22019, 24 h, read-out: MIC at 24 hr) was greater than 128 µg/mL. The MIC ([22]; ATCC22019, Example 4, 48 hr, isolate MMX 2323 (ATCC 22019), read-out: MIC at 48 hr) was greater than 128 µg/mL, the “precipitation observed (type)” value ([23]; Brucella Broth) was “none” and the “precipitation observed (type)” value ([23]; MHB II) was “none”. For the same compound, the “precipitation observed (type)” value ([23]; MHB II with Blood) was “none”, the “precipitation observed (type)” value ([23]; RPMI) was “none” and the MBC ([24]; Streptococcus pyogenes, MMX404) was 32 µg/mL (≈ 102 µM). The MIC ([24]; Streptococcus pyogenes, MMX404) was 32 µg/mL (≈ 102 µM), the “MBC:MIC” value [24, 34] was 1 and the MIC [25] was greater than 256 µg/mL. For the same compound, the MBC [26, 35] was 32 µg/mL (≈ 102 µM), the MIC [26, 35] was 16 µg/mL (≈ 50.9 µM) and the “MBC:MIC” value [26, 34] was 2. The “activity against gram-positive aerobic bacteria” value [27] was “active”, the “activity against gram-negative aerobic bacteria” value [28] was “inactive” and the “activity against Gram-negative aerobes” value [29] was “inactive”. The “activity against yeast and fungal isolates” value [30] was “Neither THC nor CBD were active” and the “biocidal activity against the strains tested” value [31] was “overall biocidal”.

From US11207291B2, “Antimicrobial compositions comprising cannabinoids and methods of using the same” (Graphium Biosciences, Inc., priority 2017, dated 2021)
